Measurements reported in patent publication US12064468B2, “Compositions and methods relating to a C-terminal peptide of troponin i with activity as a myofilament CA2+ desensitizer” (Wayne State University, priority 2019, dated 2024).
Ends that are not written are not given here.

What was measured:
[1] = biological target: T1, bovine cardiac α-tropomyosin (Bos taurus, UniProt Q5KR49); assay: Competitive ELISA: peptide versus intact bovine cardiac TnI for tropomyosin binding; conditions: serial dilutions of peptide in solution
T1 construct: Purified bovine cardiac α-tropomyosin was coated on 96-well plate; from tissue; host or cells: bovine cardiac muscle (inferred from 'purified bovine cardiac')
Procedure: Competitive tropomyosin binding experiments were performed using a derivative protocol of the microtiter plate ELISA as described in B. J. Biesiadecki et al., Journal of Biomedicine and Biotechnology, (2011) 1-8. Purified bovine cardiac α-tropomyosin was coated on 96-well plate at 5 μg/mL in Buffer A at 4° C. overnight. Washed and blocked as above, bovine cardiac TnI was added, at a predetermined concentration that produces sub-maximal binding for the immobilized tropomyo sin, to serial dilutions of HcTnI-C27 or HcTnI-C27-H peptides for incubation at room temperature for 2 hours. The competition between the cardiac TnI C-terminal peptides and intact cardiac TnI for tropomyosin binding was measured via mAb 4H6 that recognizes an epitope in intact TnI but not in the C-terminal end peptide, see S. Akhter et al., FEBS Open Bio 5 (2015) 64-75, and HRP-anti-mouse IgG secondary antibody using standard ELISA procedure as described above.

mAb TnI-1 [2] = assay: Competitive ELISA: peptide versus immobilized bovine cardiac TnI for mAb TnI-1; type: binding, mouse; conditions: physiologic solution
Procedure: To compare the folding and conformation of chemically synthesized HcTnI-C27 and HcTnI-C27-H peptides with that of the biologically synthesized counterparts, competitive ELISA affinity titrations against mAb TnI-1 were performed. 96-well microtiter plates were coated with purified bovine cardiac TnI in Buffer A and incubated at 4° C. overnight. Monoclonal antibody (mAb) TnI-1 was added, at a predetermined concentration that produces sub-maximal binding for the immobilized bovine cardiac TnI, to serial dilutions of biologically or chemically synthesized HcTnI-C27 and HcTnI-C27-H peptides. The effects of the peptides on competing with intact cardiac TnI for mAb TnI-1 were measured via HRP-anti-mouse IgG secondary antibody using standard ELISA procedure as described above.

mAb TnI-1 [3] = assay: Western blot with mAb TnI-1 (epitope in the C-terminal end of TnI); type: binding, mouse; conditions: after denaturing SDS-PAGE and blotting
Procedure: SDS-PAGE was performed to monitor the expression and identify the C27 peptide in intact TnI and fusion protein constructs. Briefly, 14% Laemmli SDS-PAGE with an acrylamide:bisacrylamide ratio of 29:1 was used to monitor protein expression. Protein samples were prepared by dissolving the proteins in an SDS-PAGE gel sample buffer containing 2% SDS and 3% β-mercaptoethanol. The samples were run on 0.75 mm gels at 20 mA per gel using a Bio-Rad mini-gel system. Resolved gels were stained with Coomassie Blue R-250 and de-stained using 10% acetic acid. The results were documented by imaging using a high resolution scanner.
Tris-Tricine small pore SDS-gels were utilized to […]. Briefly, 15% SDS-PAGE with acrylamide:bisacrylamide ratio of 20:1 was used to monitor the recovery of peptides. Samples were prepared as above. The gel was run using different anode and cathode buffers as described in H. Schagger et al., 166(2) (1987) 368-379; J.-P. Jin, Journal of Biological Chemistry 270(12) (1995) 6908-6916. The running conditions and documentation of results were carried out as above.
The protein bands resolved on SDS-PAGE gels were electrically transferred to nitrocellulose (NC) membranes or polyvinylidene difluoride (PVDF) membranes using a Bio-Rad semidry electrotransfer apparatus at 5 mA per cm^2. The membranes were then blocked with 1% bovine serum albumin (BSA) in Tris-buffered saline (TBS) at room temperature for 30 minutes, and incubated with mAb TnI-1 against an epitope in the C-terminal end of TnI or mAb 3C11 against the Tx3 metal affinity purification tag at 4° C. overnight. The TnI-1 mAb was raised using standard hybridoma technology in which the immunization of mouse used purified intact chicken fast TnI. […] The 3C11 mAb was generated using standard hybridoma technology in which the immunization used a Tx3 metal binding tag fusion protein. […] Washed with 0.05% Triton X-100 and 0.1% SDS in TBS, the membranes were further incubated with alkaline phosphatase-conjugated goat anti-mouse IgG secondary antibody, washed again, and developed in BCIP-NTB substrate solution. The results were documented by imaging using a high resolution scanner.

[4] = system: skinned mouse EDL muscle fibers; assay: Force-pCa contractility of skinned mouse EDL muscle fibers; type: biochemical; conditions: 20 μM peptide, sarcomere length 2.7 μm
Text: Extensor digitorum longus (EDL) muscles were obtained from adult C57B/L6 mice immediately after euthanasia to prepare chemically permeabilized muscle preparations as described in J. Ochala et al., The FASEB Journal 25(6) (2011) 1903-1913; and S. M. Roche et al., Journal of Visualized Experiments 100 (2015). Briefly, whole EDL muscles were excised from mice and longitudinally dissected along fibers in a calcium free relaxing buffer. The muscle strips dissected were washed with the relaxing buffer and stored in a 35 mm dish at −20° C. in 50% glycerol relaxing-skinning solution to remove cellular membranes and the endogenous calcium handling system for use in the measurements of calcium sensitivity and force-pCa relationship.
For contractility studies, the storage dish was placed on a thermal-controlled metal stage at 0° C. under a dissection scope. Cryosectioned cardiac muscle strips selected with cardiomyocytes clearly organized along the long axis and EDL muscle fibers were mounted between two aluminum T-clips and transferred to an 8-chamber thermo-controlled stage (802D, Aurora Scientific) on an inverted microscope in relaxation buffer at 6-8° C. Seen through a 20× lens, the muscle preparation was connected to a force transducer (403A, Aurora Scientific) and a length controller (322-C, Aurora Scientific). The buffer was then switched to a skinning solution (relaxation buffer containing 1% Triton X-100) for 20 min to further permeabilize the muscle strips. After a wash with relaxation buffer, the permeabilized muscle strip was placed in pCa 9.0 buffer made by mixing the relaxing buffer (pCa 10.0) with an activation buffer (BES 40 mM, EGTA 10 mM, MgCl2 6.64 mM, ATP 6.23 mM, DTT, 1 mM, CaCl2 10 mM, creatine phosphate 33 mM, creatine kinase 200 U/mL, K-propionate 2.09 mM, pH 7.0, plus protease inhibitor cocktail, pCa 4.0) and the sarcomere length was measured through a digital camera attached to the microscope and adjusted to resting sarcomere length of 2.7 μm for EDL muscle fibers or 2.0 μm and 2.3 μm for cardiac muscle fibers. […]

[5] = system: skinned rat ventricular papillary muscle; assay: Force-pCa contractility of skinned rat ventricular papillary muscle sections; type: biochemical; conditions: 20 μM peptide
Procedure: (§1) Permeabilized rat and mouse left ventricular papillary muscle preparations were prepared using a skinned cryosection method. Papillary muscles were dissected with a portion of ventricular free wall in one end and valve tendon in the other end. The isolated papillary muscle was pinned down on a cork at the two ends using 30 gauge needles. A small drop of optimal cutting temperature (O.C.T.) compound was used to fill the space between the muscle tissue and the surface of the cork before flash freezing by quickly submerging in liquid nitrogen. The frozen papillary muscle was sectioned longitudinally at a thickness of 35 μm using a cryostat and collected on a glass slide. Four stacked razor blades were used to cut the muscle sections longitudinally into 140-150 μm wide strips. The muscle strips were washed in a relaxing buffer (BES 40 mM, EGTA 10 mM, MgCl2 6.86 mM, ATP 5.96 mM, DTT 1 mM, creatine phosphate 33 mM, creatine kinase 200 U/mL, K-propionate 3.28 mM, pH 7.0, plus protease inhibitor cocktail) and then gently transferred into myofibril relaxation buffer containing 50% glycerol in a 35 mm culture dish and stored at −20° C. for later use in force-pCa studies.
For contractility studies, the storage dish was placed on a thermal-controlled metal stage at 0° C. under a dissection scope. Cryosectioned cardiac muscle strips selected with cardiomyocytes clearly organized along the long axis and EDL muscle fibers were mounted between two aluminum T-clips and transferred to an 8-chamber thermo-controlled stage (802D, Aurora Scientific) on an inverted microscope in relaxation buffer at 6-8° C. Seen through a 20× lens, the muscle preparation was connected to a force transducer (403A, Aurora Scientific) and a length controller (322-C, Aurora Scientific). The buffer was then switched to a skinning solution (relaxation buffer containing 1% Triton X-100) for 20 min to further permeabilize the muscle strips. After a wash with relaxation buffer, the permeabilized muscle strip was placed in pCa 9.0 buffer made by mixing the relaxing buffer (pCa 10.0) with an activation buffer (BES 40 mM, EGTA 10 mM, MgCl2 6.64 mM, ATP 6.23 mM, DTT, 1 mM, CaCl2 10 mM, creatine phosphate 33 mM, creatine kinase 200 U/mL, K-propionate 2.09 mM, pH 7.0, plus protease inhibitor cocktail, pCa 4.0) and the sarcomere length was measured through a digital camera attached to the microscope and adjusted to resting sarcomere length of 2.7 μm for EDL muscle fibers or 2.0 μm and 2.3 μm for cardiac muscle fibers. Calcium activated force was examined at pCa 6.5, 6.3, 6.0, 5.8, 5.5, 5.0, and 4.5 at 15° C. using calcium-EGTA buffer sets made using a formula described in S. M. Roche et al., Journal of Visualized Experiments 100 (2015). HcTnI-C27 peptide was then added at 20 μM and the force-pCa measurements were repeated. The force-pCa curves were plotted and fitted using Hill exponential equation for data analysis, see S. M. Roche et al., Journal of Visualized Experiments 100 (2015).

[6] = system: skinned mouse ventricular papillary muscle; assay: Force-pCa contractility of skinned mouse ventricular papillary muscle; type: biochemical; conditions: 20 μM peptide
Procedure: as §1
For contractility studies, the storage dish was placed on a thermal-controlled metal stage at 0° C. under a dissection scope. […] After a wash with relaxation buffer, the permeabilized muscle strip was placed in pCa 9.0 buffer made by mixing the relaxing buffer (pCa 10.0) with an activation buffer (BES 40 mM, EGTA 10 mM, MgCl2 6.64 mM, ATP 6.23 mM, DTT, 1 mM, CaCl2 10 mM, creatine phosphate 33 mM, creatine kinase 200 U/mL, K-propionate 2.09 mM, pH 7.0, plus protease inhibitor cocktail, pCa 4.0) and the sarcomere length was measured through a digital camera attached to the microscope and adjusted to resting sarcomere length of 2.7 μm for EDL muscle fibers or 2.0 μm and 2.3 μm for cardiac muscle fibers. […]

mAb TnI-1 [7] = assay: ELISA titration of mAb TnI-1 against coated fusion proteins / cardiac TnI, non-denaturing; type: binding, mouse; conditions: non-denaturing conditions, protein coated on microtiter plate
Procedure: The ELISA procedure used in the present study for epitope structure and protein binding studies was performed as described in B. J. Biesiadecki et al., Journal of Biomedicine and Biotechnology, (2011) 1-8. Briefly, 96-well microtiter plates were coated with SUMO-HcTnI-C27 fusion protein, SUMO-HcTnI-C27-H fusion protein, purified bovine cardiac TnI, or R192H mutant mouse cardiac TnI (2 μg/mL in Buffer A containing 0.1 M KC1, 3 mM MgCl2, 10 mM PIPES, pH 7.0, 100 microliters/well) at 4° C. overnight. The plates were washed with Buffer T (0.05% Tween-20 in Buffer A) for 10 minutes and tapped dry. The wells were blocked using Buffer B (1% BSA in Buffer T) at room temperature for one hour. After washing again with Buffer T, serial dilutions of primary mAb against the coated protein were added in triplicates in Buffer D (dilution buffer, 0.1% BSA in Buffer T) and the plate was incubated at room temperature for two hours. After Buffer T washes, horseradish peroxidase (HRP)-conjugated anti-mouse immunoglobulin secondary antibody was added to incubate at room temperature for one hour. After final washes, H2O2-2,2′-azinobis-(3-ethylbenzthiazolinesulfonic acid) substrate solution was added for colorimetric development at room temperature and the plate was read using an automated microplate reader at 420 nm at 5 minute intervals for 30 minutes.
The ELISA experiments were done in triplicate wells. […]

[8] = sarcomere lengths 2.0 μm and 2.3 μm

Substance: ENREVGDWHKNIDALSGMEGRKKKFES (C-terminal portion of human cardiac troponin I with H substitution for R at position 9) [HcTnI-C27-H, R192H mutant of the C-terminal 27 amino acid peptide of human cardiac TnI, reference compound]
- competition with intact bovine cardiac TnI for binding to immobilized tropomyosin [1]: diminished
- competition with intact cardiac TnI for binding of mAb TnI-1, synthetic versus biologically made peptide (mAb TnI-1 [2]): drastically lost the binding affinity for mAb TnI-1
- reactivity to mAb TnI-1 in Western blot (mAb TnI-1 [3]): remains non-reactive to mAb TnI-1

Substance: ENREVGDWRKNIDALSGMEGRKKKFES (C-terminal portion of human cardiac troponin I) [HcTnI-C27, the C-terminal 27 amino acid peptide of human cardiac TnI]
- cooperativity (n) of force-pCa curve [4]: significantly decreased cooperativity
- maximum force production [4]: not affected
- myofilament Ca2+ sensitivity [4]: myofilament Ca^2+-desensitization effect predominantly in the activated state
- competition with intact bovine cardiac TnI for binding to immobilized tropomyosin [1]: dose-dependent competition
- pCa50 and cooperativity ([5]; sarcomere length 2.0 μm): small effect on lowering pCa50 and cooperativity
- Ca2+-sensitization effect of increasing sarcomere length ([5]; sarcomere length 2.0 μm to 2.3 μm): diminished the Ca^2+-sensitization effect of increasing sarcomere length from 2.0 μm to 2.3 μm
- cooperativity ([5]; sarcomere length 2.3 μm): trend of decreasing cooperativity
- pCa50 ([5]; sarcomere length 2.3 μm): statistically significant right-shift of pCa50
- maximum force production [5, 8]: not affected
- competition with intact cardiac TnI for binding of mAb TnI-1, synthetic versus biologically made peptide (mAb TnI-1 [2]): nearly identical effectiveness
- reactivity to mAb TnI-1 in Western blot (mAb TnI-1 [3]): remains reactive to mAb TnI-1
- cooperativity ([6]; sarcomere length 2.0 μm, activated state): significantly lowered cooperativity
- Ca2+ sensitivity (force-pCa curves) [6, 8]: right-shifts of the force-pCa curves
- maximum force production [6, 8]: not significantly affected

Substance: Tx3-SUMO-HcTnI-C27-H: HcTnI-C27-H (R192H mutant) expressed as Tx3-SUMO fusion protein (ENREVGDWHKNIDALSGMEGRKKKFES; also: expressed as Tx3-SUMO fusion protein) [reference compound]
- binding of mAb TnI-1 in ELISA titration (mAb TnI-1 [7]): clearly detectable but significantly decreased binding to mAb TnI-1
- reactivity to mAb TnI-1 in Western blot (mAb TnI-1 [3]): lost binding to mAb TnI-1

Substance: Tx3-SUMO-HcTnI-C27: HcTnI-C27 expressed as fusion protein with Tx3 metal-binding tag and SUMO substrate domain (ENREVGDWRKNIDALSGMEGRKKKFES; also: expressed as Tx3-SUMO fusion protein)
- binding of mAb TnI-1 in ELISA titration (mAb TnI-1 [7]): saturable binding of mAb TnI-1
- reactivity to mAb TnI-1 in Western blot (mAb TnI-1 [3]): reactive to mAbTnI-1
